Consider 23 compounds from patent US20100216827A1 (Metabolex, Inc., priority 2008, published 2010).

Where two headings read alike, the source gives them in different places.

For this assay, the target named is T1, human GPR120 (Homo sapiens, UniProt Q5NUL3).
T1 construct: host or cells: HEK293 cells coexpressing Gqi5
T1 sequence (Q5NUL3 1-361): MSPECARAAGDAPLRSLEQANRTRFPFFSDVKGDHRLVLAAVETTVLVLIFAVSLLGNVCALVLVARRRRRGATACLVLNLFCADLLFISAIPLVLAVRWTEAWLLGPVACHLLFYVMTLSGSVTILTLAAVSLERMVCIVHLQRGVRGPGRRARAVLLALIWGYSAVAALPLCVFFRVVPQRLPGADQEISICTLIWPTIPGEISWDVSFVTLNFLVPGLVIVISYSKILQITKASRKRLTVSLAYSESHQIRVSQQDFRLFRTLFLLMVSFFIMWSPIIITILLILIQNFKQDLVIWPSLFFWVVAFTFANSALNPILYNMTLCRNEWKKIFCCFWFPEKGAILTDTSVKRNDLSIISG
Nature of the assay: Intracellular Ca2+ (FLIPR Calcium 4, Flexstation) assay in human GPR120 stable HEK293 cell line coexpressing Gqi5. Conditions: for % Activity at 5 μM: 5 μM compound compared to the maximal activity of GW9508 at 6.7 μM (100%); for EC50: human GPR120 stably expressing cells, 8 concentrations 0.00001 to 20 μM. Format: cell-based. As for the experimental part: Human GPR120 stable cell line was purchased from Multispan Inc (26219 Eden Landing Road, Hayward, Calif. 94545). This GPR120 cell line was generated in HEK293 cells coexpressing Gqi5. In this cell line, the Flag epitope tag (DYKDDDDK) was fused to the amino terminus of human GPR120 protein.
The concentration of intracellular Ca^2+ was measured as described below. Human GPR120 cells were plated in 96 well plates (Poly-D-Lysine coated black/clear Plate, Greiner Bio-One) at 70,000 cells per well and cultured overnight in conditions of 37° C. and 5% CO2. A Ca^2+ assay dye stock solution was prepared by adding 10 mL of assay buffer (HBSS/20 mM HEPES, pH 7.4) to FLIPR Calcium 4 Assay Bulk Kit (Molecular Devices). The 10 mL of Ca^2+ assay dye solution was prepared by further diluting 0.5 mL of Ca^2+ assay dye stock solution with 10 mL of assay buffer. The medium of the cells was removed and immediately 100 μl of the Ca^2+ assay dye solution was dispensed into each well followed by incubation at 37° C. and 5% CO2 for 50 minutes to incorporate the Ca^2+ dye into the cells. The cell plate was then placed in the Flexstation (Molecular Devices) for 20 minutes at 37° C. Compounds were dissolved in 100% DMSO and diluted to desired concentrations with assay buffer and placed in Flexstation simultaneously with the cell plate for 20 minute incubation at 37° C. prior to reading. Fluorescence intensity was measured immediately following compound addition (25 μl/well) on the Flexstation at an excitation wavelength of 485 nm and an emission wavelength of 525 with 515 nm auto cutoff. The resulting increase in fluorescence intensities corresponds to increases in intracellular Ca^2+ levels.
Compounds were dissolved in 100% DMSO to a concentration of 20 mM to provide stock solutions. To determine activity against human GPR120, compounds were added with human GPR120 stably expressing cells (described above), at 8 desired concentrations ranging from 0.00001 to 20 μM, in 96 well plates and fluorescence intensities were measured for 90 seconds with 2-second intervals. An EC50 value (concentration of the GPR120 agonist where 50% of the agonist's maximal activity is observed) was calculated using the changes (Max-Min) of fluorescent intensity.
To determine percent activity for a tested compound, the fluorescence intensity value obtained at a particular concentration were compared to the maximal fluorescence intensity value obtained for reference compound GW9508 (4-[[(3-phenoxyphenyl)methyl]amino]benzene propanoic acid; British Journal of Pharmacology 2006 148, 619-628) that acts as a full agonist of the GPR120 receptor. The maximal activity of GW9508 is designated as 100% activity. Typically, the GW9508 activity reached a maximum at a concentration of approximately 6.7 μM. Activities of compounds that were tested according to this method are shown in Table 1 below and are expressed as % activity at 5 μM compound compared to the maximal activity of GW9508 at 6.7 μM.

Setting [1] is: read-out: EC50 between >1 μM and ≦10 μM.

As usually defined, the EC50 is the concentration that produces a half-maximal response. As to `Cc1nc(-c2ccccc2)c(COc2c(F)cc(C3CC3C(=O)O)cc2F)s1` (stereo not shown) [Example 33, 2-(3,5-difluoro-4-((2-methyl-4-phenylthiazol-5-yl)methoxy)phenyl)cyclopropane carboxylic acid], the “% Activity at 5 μM” value is reported as 80%. Also, the half-maximal effective concentration (EC50) (read-out: EC50 ≦ 1 μM) is at most 1 µM.
For the compound `Cc1onc(-c2ccccc2)c1COc1c(F)cc(COCC(=O)O)cc1F` [Example 34, 2-(3,5-difluoro-4-((5-methyl-3-phenylisoxazol-4-yl)methoxy)benzyloxy)acetic acid], the “% Activity at 5 μM” value is reported as 74%. Besides, the EC50 under setting [1] lay within 1 to 10 µM.
Regarding `Cc1cc(COc2c(F)cc(COCC(=O)O)cc2F)n(-c2ccc(Cl)cc2)n1` [Example 35, 2-(4-((1-(4-chlorophenyl)-3-methyl-1H-pyrazol-5-yl)methoxy)-3,5-difluorobenzyloxy)acetic acid], the “% Activity at 5 μM” value worked out at 86%. For the same compound, the EC50 (read-out: EC50 ≦ 1 μM) was at most 1 µM.
As for `Cc1onc(-c2ccccc2)c1COc1c(F)cc(CC(C)C(=O)O)cc1F` (stereo not shown) [Example 37, 3-(3,5-difluoro-4-((5-methyl-3-phenylisoxazol-4-yl)methoxy)phenyl)-2-methylpropanoic acid], the “% Activity at 5 μM” value worked out at 94%. The EC50 (read-out: EC50 ≦ 1 μM) is at most 1 µM.
Take `Cc1cc(COc2c(F)cc(CC(C)(C)C(=O)O)cc2F)n(-c2ccc(Cl)cc2)n1` [Example 38, 3-(4-((1-(4-chlorophenyl)-3-methyl-1H-pyrazol-5-yl)methoxy)-3,5-difluorophenyl)-2,2-dimethylpropanoic acid]: the “% Activity at 5 μM” value came out at 100%. Moreover, the EC50 under setting [1] lay within 1 to 10 µM.
As to `Cc1cc(COc2ccc3c(c2)CCC(CC(=O)O)C3)n(-c2ccc(Cl)cc2)n1` (stereo not shown) [Example 39, 2-(6-((1-(4-chlorophenyl)-3-methyl-1H-pyrazol-5-yl)methoxy)-1,2,3,4-tetrahydronaphthalen-2-yl)acetic acid], the “% Activity at 5 μM” value amounted to 100%. Besides, the EC50 (read-out: EC50 ≦ 1 μM) was at most 1 µM.
The like results for `Cc1onc(-c2ccccc2)c1COc1ccc2c(c1)CCC(CC(=O)O)C2` (stereo not shown) [Example 40, 2-(6-((5-methyl-3-phenylisoxazol-4-yl)methoxy)-1,2,3,4-tetrahydronaphthalen-2-yl)acetic acid] were, in that order, 100% and at most 1 µM.
Consider `Cc1cc(COc2c(F)cc(CCC(=O)O)cc2F)n(C(C)(C)C)n1` [Example 41, 3-(4-((1-tert-butyl-3-methyl-1H-pyrazol-5-yl)methoxy)-3,5-difluorophenyl)propanoic acid], for which the “% Activity at 5 μM” value turned out to be 50%. The EC50 (read-out: EC50 ≦ 1 μM) is at most 1 µM.
In the case of `Cc1cc(COc2ccc(CCCC(=O)O)cc2)n(-c2ccccc2)n1` [Example 45, 4-(4-((3-methyl-1-phenyl-1H-pyrazol-5-yl)methoxy)phenyl)butanoic acid], the “% Activity at 5 μM” value turned out to be 61%. For the same compound, for the setting “read-out: EC50 ≦ 1 μM”, the EC50 was at most 1 µM.
With `Cc1cc(COc2c(F)cc(CCC(=O)O)cc2F)n(-c2ccccc2)n1` [Example 46, 3-(3,5-difluoro-4-((3-methyl-1-phenyl-1H-pyrazol-5-yl)methoxy)phenyl)propanoic acid], the “% Activity at 5 μM” value is reported as 62%. Moreover, under “read-out: EC50 ≦ 1 μM”, the EC50 is at most 1 µM.
Consider `Cc1cc(COc2c(F)cc(CCC(=O)O)cc2F)n(-c2ccc(F)cc2)n1` [Example 47, 3-(3,5-difluoro-4-((1-(4-fluorophenyl)-3-methyl-1H-pyrazol-5-yl)methoxy)phenyl)propanoic acid], for which the “% Activity at 5 μM” value is on record as 71%. Further, under “read-out: EC50 ≦ 1 μM”, the EC50 is at most 1 µM.
In the case of `O=C(O)CCc1cc(F)c(OCc2ccnn2-c2ccccc2)c(F)c1` [Example 48, 3-(3,5-difluoro-4-((1-phenyl-1H-pyrazol-5-yl)methoxy)phenyl)propanoic acid], the “% Activity at 5 μM” value is 73%. Further, for the setting “read-out: EC50 ≦ 1 μM”, the EC50 was at most 1 µM.
`COc1ccc(-n2nc(C)cc2COc2c(F)cc(CCC(=O)O)cc2F)cc1` [Example 49, 3-(3,5-difluoro-4-((1-(4-methoxyphenyl)-3-methyl-1H-pyrazol-5-yl)methoxy)phenyl)propanoic acid]: the “% Activity at 5 μM” value was 71%. Under “read-out: EC50 ≦ 1 μM”, the EC50 is at most 1 µM.
`Cc1cc(COc2c(F)cc(CCC(=O)O)cc2F)n(-c2ccc(Cl)cc2)n1` [Example 50, 3-(4-((1-(4-chlorophenyl)-3-methyl-1H-pyrazol-5-yl)methoxy)-3,5-difluorophenyl)propanoic acid]: the “% Activity at 5 μM” value came out at 85%. For the same compound, the EC50 (read-out: EC50 ≦ 1 μM) was at most 1 µM.
The corresponding values for `Cc1cnn(-c2ccc(F)cc2)c1COc1c(F)cc(CCC(=O)O)cc1F` [Example 51, 3-(3,5-difluoro-4-((1-(4-fluorophenyl)-4-methyl-1H-pyrazol-5-yl)methoxy)phenyl)propanoic acid] are 81% and at most 1 µM.
The like results for `O=C(O)C(F)(F)Cc1cc(F)c(OCc2snnc2-c2ccc(Cl)cc2)c(F)c1` [Example 52, 3-(4-((4-(4-chlorophenyl)-1,2,3-thiadiazol-5-yl)methoxy)-3,5-difluorophenyl)-2,2-difluoropropanoic acid] were, in that order, 96% and at most 1 µM.
`Cc1cc(COc2c(F)cc(CCC(=O)O)cc2F)n(-c2ccc(F)c(F)c2)n1` [Example 53, 3-(4-((1-(3,4-difluorophenyl)-3-methyl-1H-pyrazol-5-yl)methoxy)-3,5-difluorophenyl)propanoic acid]: the “% Activity at 5 μM” value is given as 84%. Further, under “read-out: EC50 ≦ 1 μM”, the EC50 is at most 1 µM.
The corresponding values for `Cc1cc(COc2c(F)cc(CC(F)C(=O)O)cc2F)n(-c2ccc(Cl)cc2)n1` (stereo not shown) [Example 54, 3-(4-((1-(4-chlorophenyl)-3-methyl-1H-pyrazol-5-yl)methoxy)-3,5-difluorophenyl)-2-fluoropropanoic acid] are 48% and at most 1 µM.
In the case of `Cc1cc(COc2c(F)cc(CC3CC3C(=O)O)cc2F)n(-c2ccc(Cl)cc2)n1` (stereo not shown) [Example 55, 2-(4-((1-(4-chlorophenyl)-3-methyl-1H-pyrazol-5-yl)methoxy)-3,5-difluorobenzyl)cyclopropanecarboxylic acid], the “% Activity at 5 μM” value came to 66%. For the same compound, the EC50 (read-out: EC50 ≦ 1 μM) is at most 1 µM.
For `O=C(O)CCc1cc(F)c(OCc2cc(C(F)(F)F)nn2-c2ccc(Cl)cc2)c(F)c1` [Example 56, 3-(4-((1-(4-chlorophenyl)-3-(trifluoromethyl)-1H-pyrazol-5-yl)methoxy)-3,5-difluorophenyl)propanoic acid], the “% Activity at 5 μM” value is on record as 71%. Besides, the concentration for a half-maximal effect (EC50) (read-out: EC50 ≦ 1 μM) was at most 1 µM.
As to `O=C(O)C(F)(F)Cc1cc(F)c(OCc2cc(C(F)(F)F)nn2-c2ccc(Cl)cc2)c(F)c1` [Example 57, 3-(4-((1-(4-chlorophenyl)-3-(trifluoromethyl)-1H-pyrazol-5-yl)methoxy)-3,5-difluorophenyl)-2,2-difluoropropanoic acid], the “% Activity at 5 μM” value was determined as 85%. Also, the EC50 (read-out: EC50 ≦ 1 μM) is at most 1 µM.
Turning to `Cc1onc(-c2ccccc2)c1COc1ccc2c(c1)CCC2CC(=O)O` (stereo not shown) [Example 58, 2-(5-((5-methyl-3-phenylisoxazol-4-yl)methoxy)-2,3-dihydro-1H-inden-1-yl)acetic acid], the “% Activity at 5 μM” value is listed as 66%. For the same compound, for the setting “read-out: EC50 ≦ 1 μM”, the EC50 is at most 1 µM.
For `Cc1cc(COc2ccc3c(c2)CCC3CC(=O)O)n(-c2ccc(Cl)cc2)n1` (stereo not shown) [Example 59, 2-(5-((1-(4-chlorophenyl)-3-methyl-1H-pyrazol-5-yl)methoxy)-2,3-dihydro-1H-inden-1-yl)acetic acid], the “% Activity at 5 μM” value is recorded as 100%. In addition, the EC50 (read-out: EC50 ≦ 1 μM) is at most 1 µM.
